Experimental data taken from patent US8299093B2, “Small molecule inhibitors of retroviral assembly and maturation” (New York Blood Center, Inc., priority 2008, dated 2012).
Read-outs that look alike come from different tables or passages of the source.

Assays:
[1] = XTT cytotoxicity assay in MT-2 cells; type: cell-based; conditions: human, cell type not given
Protocol: Briefly, for MT-2 cells, 100 μL of small molecule at graded concentrations was added to an equal volume of cells (5×10^4 cells/ml) in 96-well plates followed by incubation at 37° C. for 4 days, which ran parallel to the neutralization assay in MT-2 (except medium was added instead of virus). In the case of PBMC, 2.5×10^5 cells/mL were used and the cytotoxicity was measured after 7 days. After addition of XTT (PolySciences, Inc.), the soluble intracellular formazan was quantitated calorimetrically at 450 nm 4 hours later with a reference at 620 nm. The CC50 values were calculated.

HIV-1 = experiment: Inhibition of HIV-1 infectivity (p24 ELISA) in MT-2 cells, laboratory-adapted HIV-1 strains; type: cell-based; conditions: Human immunodeficiency virus 1, MT2, 96 h, MT-2 cells, p24 ELISA day 4
Protocol: AZT was used as a positive control in the infectivity assays. In brief, 1×10^4 MT-2 cells (lymphocytes) were infected with HIV-1 at 100 TCID50 (50% tissue culture infective dose, 0.01 MOI [multiplicity of infection]) in 200 μL RPMI 1640 medium containing 10% FBS in the presence or absence of small molecules at graded concentrations overnight. The culture supernatants were then removed and fresh media containing freshly prepared test compounds were added. On the fourth day post-infection, 100 μL of culture supernatants were collected from each well, mixed with equal volume of 5% TRITON X-100® and tested for p24 antigen by ELISA®.

[2] = Table 1, formula I, read-out: CC50 (concentration that causes 50% cytotoxicity)
[3] = read-out: IC50 (concentration that provides 50% inhibition of HIV-1 p24), Table 1, formula I
[4] = Table 2, formula II, read-out: CC50

Row | SMILES | CC50 [1, 2] [µM] | IC50 (HIV-1; [3]) [µM] | CC50 [1, 4] [µM] | IC50 (HIV-1; Table 2, formula II) [µM]
1 | COc1ccc2cc(CN(Cc3ccc4c(c3)OCO4)C(=S)Nc3ccc(C)cc3)c(=O)[nH]c2c1 [NYAD-S2] | > 10 | > 10 | – | –
2 | CCc1ccc2[nH]c(=O)c(CN(Cc3cccnc3)C(=S)NCC3CCCO3)cc2c1 (centres unmarked) [NYAD-S3] | > 10 | > 10 | – | –
3 | Cc1cc(C)c2[nH]c(=O)c(CN(CCO)C(=S)Nc3ccc(F)cc3)cc2c1 [NYAD-S4] | > 10 | > 10 | – | –
4 | COc1ccc2[nH]c(=O)c(CN(Cc3cccnc3)C(=S)Nc3ccc(F)cc3)cc2c1 [NYAD-S5] | > 10 | > 10 | – | –
5 | Cc1ccc2[nH]c(=O)c(CN(Cc3ccco3)S(=O)(=O)c3ccc(Cl)cc3)cc2c1 [NYAD-S6-4] | > 10 | < 10 | – | –
6 | Cc1ccc2[nH]c(=O)c(CN(Cc3ccco3)C(=O)c3ccc(Cl)c(Cl)c3)cc2c1 [NYAD-S6-6] | > 10 | < 10 | – | –
7 | Cc1ccc2[nH]c(=O)c(CN(Cc3ccco3)C(=O)c3ccc(Cl)c(N4CCCCC4)c3)cc2c1 [NYAD-S6-8] | > 10 | < 10 | – | –
8 | Cc1ccc2[nH]c(=O)c(CN(Cc3ccco3)C(=O)c3ccc(F)c(Cl)c3)cc2c1 [NYAD-S6-10] | > 10 | < 10 | – | –
9 | Cc1ccc2[nH]c(=O)c(CN(Cc3ccco3)C(=O)c3ccc(F)c(C)c3)cc2c1 [NYAD-S6-19] | > 10 | < 10 | – | –
10 | Cc1ccc2[nH]c(=O)c(CN(Cc3ccco3)C(=O)c3ccc(F)c(F)c3)cc2c1 [NYAD-S6-21] | > 10 | < 10 | – | –
11 | Cc1cc(=O)n2c3ccccc3n(CC(O)CN3CCCC3)c2c1C#N (centres unmarked) [NYAD-S9] | – | – | > 10 | > 10
12 | Cc1cc(=O)n2c3ccccc3n(CC(O)CNc3ccccc3)c2c1C#N (centres unmarked) [NYAD-S10] | – | – | > 10 | > 10
13 | Cc1cc(=O)n2c3ccccc3n(CC(O)CN3CCCCC3)c2c1C#N (centres unmarked) [NYAD-S12] | – | – | > 10 | > 10
14 | Cc1cc(=O)n2c3ccccc3n(CC(O)CN3CCOCC3)c2c1C#N (centres unmarked) [NYAD-S13] | – | – | > 10 | > 10
15 | Cc1ccccc1N1CCN(CC(O)Cn2c3ccccc3n3c(=O)cc(C)c(C#N)c23)CC1 (centres unmarked) [NYAD-S14] | – | – | > 10 | > 10
16 | Cc1cc(=O)n2c3ccccc3n(CC(O)Cn3ccnc3)c2c1C#N (centres unmarked) [NYAD-S15] | – | – | > 10 | > 10
17 | Cc1cc(=O)n2c3ccccc3n(CC(O)CN3CCN(CCOc4ccc(Cl)cc4)CC3)c2c1C#N (centres unmarked) [NYAD-S16] | – | – | > 10 | < 10
18 | Cc1cc(=O)n2c3ccccc3n(CC(O)CN3CCN(CCO)CC3)c2c1C#N (centres unmarked) [NYAD-S18] | – | – | > 10 | > 10
19 | COc1ccc(CCNCC(O)Cn2c3ccccc3n3c(=O)cc(C)c(C#N)c23)cc1OC (centres unmarked) [NYAD-S19] | – | – | > 10 | > 10
20 | CCC(=O)N(Cc1ccco1)Cc1cc2cc(C)ccc2[nH]c1=O [NYAD-S20] | > 10 | > 10 | – | –
21 | Cc1cccc2cc(CN(Cc3ccco3)C(=O)c3ccccc3)c(=O)[nH]c12 [NYAD-S21] | > 10 | < 10 | – | –
22 | Cc1cccc2cc(CN(Cc3ccccc3)C(=O)c3ccco3)c(=O)[nH]c12 [NYAD-S22] | > 10 | > 10 | – | –

Row | SMILES | CC50 [1, 2] [µM] | IC50 (HIV-1; [3]) [µM] | CC50 [1, 4] [µM] | IC50 (HIV-1; Table 2, formula II) [µM]
23 | Cc1cccc2cc(CN(Cc3ccco3)C(=O)c3ccc(C(C)(C)C)cc3)c(=O)[nH]c12 [NYAD-S23] | > 10 | > 10 | – | –
24 | CCOc1ccc(C(=O)N(Cc2ccco2)Cc2cc3ccc(C)cc3[nH]c2=O)cc1 [NYAD-S24] | > 10 | > 10 | – | –
25 | Cc1cccc2cc(CN(Cc3ccco3)C(=O)c3cccs3)c(O)nc12 [NYAD-S25] | > 10 | > 10 | – | –
26 | Cc1cccc(C(=O)N(Cc2ccco2)Cc2cc3cccc(C)c3[nH]c2=O)c1 [NYAD-S26] | > 10 | > 10 | – | –
27 | Cc1ccc2cc(CN(Cc3ccco3)C(=O)c3ccccc3)c(=O)[nH]c2c1 [NYAD-S27] | > 10 | > 10 | – | –
28 | Cc1ccc2cc(CN(Cc3ccco3)C(=O)c3ccc(F)cc3)c(=O)[nH]c2c1 [NYAD-S28] | > 10 | > 10 | – | –
29 | COc1ccccc1C(=O)N(Cc1ccco1)Cc1cc2ccc(C)cc2[nH]c1=O [NYAD-S29] | > 10 | > 10 | – | –
30 | Cc1cccc2cc(CN(Cc3ccco3)C(=O)c3cccnc3)c(=O)[nH]c12 [NYAD-S30] | > 10 | > 10 | – | –
31 | Cc1ccccc1C(=O)N(Cc1ccco1)Cc1cc2cccc(C)c2[nH]c1=O [NYAD-S31] | > 10 | > 10 | – | –
32 | Cc1cccc2cc(CN(Cc3ccco3)C(=O)c3ccccc3F)c(=O)[nH]c12 [NYAD-S32] | > 10 | > 10 | – | –
33 | Cc1cccc2cc(CN(Cc3ccco3)C(=O)c3ccc(F)cc3)c(=O)[nH]c12 [NYAD-S33] | > 10 | > 10 | – | –
34 | Cc1ccc2cc(CN(Cc3ccco3)C(=O)c3ccccc3F)c(=O)[nH]c2c1 [NYAD-S34] | > 10 | > 10 | – | –
35 | Cc1cccc2cc(CN(Cc3ccccc3)C(=O)c3cccc(Cl)c3)c(=O)[nH]c12 [NYAD-S35] | > 10 | > 10 | – | –
36 | Cc1ccc2[nH]c(=O)c(CN(Cc3ccco3)C(=O)c3ccc(Br)cc3)cc2c1 [NYAD-S36] | > 10 | < 10 | – | –
37 | Cc1ccc2[nH]c(=O)c(CN(Cc3ccccc3)C(=O)c3ccco3)cc2c1 [NYAD-S37] | > 10 | < 10 | – | –
38 | Cc1cccc(C(=O)N(Cc2ccco2)Cc2cc3ccc(C)cc3[nH]c2=O)c1 [NYAD-S40] | > 10 | > 10 | – | –
39 | COc1ccc(C(=O)N(Cc2ccco2)Cc2cc3cc(C)ccc3[nH]c2=O)cc1OC [NYAD-S41] | > 10 | > 10 | – | –
40 | Cc1ccc2[nH]c(=O)c(CN(CC3CCCO3)C(=O)c3ccco3)cc2c1 (centres unmarked) [NYAD-S42] | > 10 | > 10 | – | –
41 | Cc1cc2cc(CN(Cc3ccco3)C(=O)C3CCCCC3)c(=O)[nH]c2cc1C [NYAD-S43] | > 10 | > 10 | – | –
42 | Cc1ccc2[nH]c(=O)c(CN(Cc3ccco3)C(=O)c3cccs3)cc2c1 [NYAD-S44] | > 10 | > 10 | – | –
43 | Cc1ccc2[nH]c(=O)c(CN(Cc3ccco3)C(=O)c3ccccc3)cc2c1 [NYAD-S45] | > 10 | < 10 | – | –
44 | Cc1ccc2[nH]c(=O)c(CN(Cc3cccnc3)C(=O)c3ccco3)cc2c1 [NYAD-S46] | > 10 | > 10 | – | –

Row | SMILES | CC50 [1, 2] [µM] | IC50 (HIV-1; [3]) [µM] | CC50 [1, 4] [µM] | IC50 (HIV-1; Table 2, formula II) [µM]
45 | Cc1ccc2cc(CN(CC3CCCO3)C(=O)c3ccco3)c(=O)[nH]c2c1C (centres unmarked) [NYAD-S47] | > 10 | > 10 | – | –
46 | Cc1ccc2cc(CN(Cc3ccccc3)C(=O)c3ccco3)c(=O)[nH]c2c1C [NYAD-S48] | > 10 | > 10 | – | –
47 | Cc1ccc2[nH]c(=O)c(CN(Cc3ccco3)C(=O)c3ccccc3F)cc2c1 [NYAD-S49] | > 10 | > 10 | – | –
48 | Cc1cccc(C(=O)N(Cc2ccco2)Cc2cc3cc(C)ccc3[nH]c2=O)c1 [NYAD-S50] | > 10 | > 10 | – | –
49 | Cc1cccc2cc(CN(Cc3ccco3)C(=O)N3CCOCC3)c(=O)[nH]c12 [NYAD-S51] | > 10 | > 10 | – | –
50 | Cc1ccc(NCC(O)Cn2c3ccccc3n3c(=O)cc(C)c(C#N)c23)cc1 (centres unmarked) [NYAD-S52] | – | – | > 10 | > 10
51 | COc1ccc(NCC(O)Cn2c3ccccc3n3c(=O)cc(C)c(C#N)c23)cc1 (centres unmarked) [NYAD-S53] | – | – | > 10 | > 10
52 | CCC1CCCCN1CC(O)Cn1c2ccccc2n2c(=O)cc(C)c(C#N)c12 (centres unmarked) [NYAD-S54] | – | – | > 10 | > 10
53 | Cc1ccc(NCC(O)Cn2c3ccccc3n3c(=O)cc(C)c(C#N)c23)cc1C (centres unmarked) [NYAD-S55] | – | – | > 10 | > 10
54 | CCOc1ccc(NCC(O)Cn2c3ccccc3n3c(=O)cc(C)c(C#N)c23)cc1 (centres unmarked) [NYAD-S56] | – | – | > 10 | > 10
55 | Cc1ccc(NCC(O)Cn2c3ccccc3n3c(=O)cc(C)c(C#N)c23)cc1Cl (centres unmarked) [NYAD-S57] | – | – | > 10 | > 10
56 | Cc1cc(C)cc(NCC(O)Cn2c3ccccc3n3c(=O)cc(C)c(C#N)c23)c1 (centres unmarked) [NYAD-S58] | – | – | > 10 | > 10
57 | Cc1cc(=O)n2c3ccccc3n(CC(O)CNc3ccc(C(C)C)cc3)c2c1C#N (centres unmarked) [NYAD-S59] | – | – | < 10 | < 10
58 | CCc1ccc(NCC(O)Cn2c3ccccc3n3c(=O)cc(C)c(C#N)c23)cc1 (centres unmarked) [NYAD-S60] | – | – | < 10 | > 10
59 | COc1ccc2[nH]c(=O)c(CN(Cc3ccco3)C(=O)c3ccccc3C)cc2c1 [NYAD-S61] | > 10 | > 10 | – | –
60 | Cc1cc(=O)n2c3ccccc3n(CC(O)CCl)c2c1C#N (centres unmarked) [NYAD-S62] | – | – | > 10 | > 10
61 | Cc1cc(=O)n2c3ccccc3n(CC(O)CNc3ccc(Cl)cc3)c2c1C#N (centres unmarked) [NYAD-S63] | – | – | > 10 | > 10
62 | Cc1cc(=O)n2c3ccccc3n(CC(O)CN3CCC(C)CC3)c2c1C#N (centres unmarked) [NYAD-S64] | – | – | > 10 | > 10
63 | COc1cccc(NCC(O)Cn2c3ccccc3n3c(=O)cc(C)c(C#N)c23)c1 (centres unmarked) [NYAD-S65] | – | – | > 10 | > 10
64 | Cc1cc(C)c2[nH]c(=O)c(CN(Cc3ccco3)C(=O)c3ccccc3)cc2c1 [NYAD-S80] | > 10 | > 10 | – | –
